The test system of one assay is Breast MCF-7. As to the kind of experiment: human cancer cell growth inhibition, sulforhodamine B assay. Type of assay: cell-based. The conditions noted are these: Homo sapiens, MCF7; Table I; 48 hours; read-out: Human cancer cell line inhibition (GI50) Breast adn MCF-7. A digest of the protocol:
(§1)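 48 h exposure; TCA fixation; SRB staining; automated plate-reader absorbance. Standard NCI format.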
For orientation: In SRB staining, fixed cells bind dye roughly in proportion to their protein.

The next assay deals with CNS SF268. The assay is described as above. Type of assay: cell-based. The conditions noted are these: Homo sapiens, SF-268; Table I; 48 hours; read-out: Human cancer cell line inhibition (GI50) CNS SF268. A digest of the protocol:
as §1

Another assay deals with Colon KM20L2. The description is as above. Type of assay: cell-based. The conditions noted are these: Homo sapiens, KM-20L2; Table I; 48 hours; read-out: Human cancer cell line inhibition (GI50) Colon KM20L2. The procedure, abridged:
as §1

In a further assay the test system is Lung-NSC NCI-H460. Described as above. Type of assay: cell-based. The conditions noted are these: Homo sapiens, NCI-H460; Table I; 48 hours; read-out: Human cancer cell line inhibition (GI50) Lung-NSC NCI-H460. The procedure, abridged:
as §1

For the next assay, the system named is Pancreas BXPC-3. Described as above. Type of assay: cell-based. The settings on record: Homo sapiens, BXPC-3; Table I; 48 hours; read-out: Human cancer cell line inhibition (GI50) Pancreas-a BXPC-3. The procedure, abridged:
as §1

The next assay has as its system Prostate DU-145. Described as above. Type of assay: cell-based. The conditions noted are these: Homo sapiens, DU-145; Table I; 48 hours; read-out: Human cancer cell line inhibition (GI50) Prostate DU-145. The procedure, abridged:
as §1

A further assay has as its system tubulin. The assay can be described thus: inhibition of [3H]colchicine binding to tubulin. The conditions noted are these: 1.0 μM tubulin, 5.0 μM [3H]colchicine, inhibitor at 1.0 μM, 10 minutes at 37° C. The procedure, abridged:
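Reaction mixtures held 1.0 μM tubulin, 5.0 μM [3H]colchicine and inhibitor at 1.0 μM, incubated 10 minutes at 37° C. The value reflects inhibition of radiolabelled colchicine binding.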

Another assay deals with Candida albicans. As to the kind of experiment: reference broth microdilution susceptibility assay. The settings on record: Table III. Type of assay: cell-based. A digest of the protocol:
(§2)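 Susceptibility was tested by the reference broth microdilution method. Bacterial strains followed the NCCLS standard for aerobically growing bacteria (M7-A5), and yeasts followed the NCCLS broth dilution reference method for yeasts (M27-A).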
A general note: Broth dilution looks for growth in wells or tubes with falling amounts of substance.

The next assay relates to Cryptococcus neoformans. The assay can be described thus: reference broth microdilution susceptibility assay. The class given is cell-based. The conditions noted are these: Table III. A digest of the protocol: as §2
In another assay the test system is Enterobacter cloacae. As to the kind of experiment: reference broth microdilution susceptibility assay. The class given is cell-based. The conditions noted are these: Table III. A digest of the protocol: (§3)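 Compounds are serially diluted in broth and tested for microbial susceptibility by the standard microdilution procedure. Bacteria are handled per approved standard M7-A5 and yeasts per approved standard M27-A.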

A further assay has as its system Enterococcus faecalis. The assay can be described thus: reference broth microdilution susceptibility assay. The class given is cell-based. The conditions noted are these: Table III. A digest of the protocol:
as §3

A further assay deals with Escherichia coli. As to the kind of experiment: reference broth microdilution susceptibility assay. Type of assay: cell-based. The conditions noted are these: Table III. A digest of the protocol: as §2
A further assay deals with Micrococcus luteus. The assay can be described thus: reference broth microdilution susceptibility assay. The conditions noted are these: Table III. The class given is cell-based. A digest of the protocol:
as §2

In another assay the test system is Neisseria gonorrhoeae. The assay can be described thus: reference broth microdilution susceptibility assay. The class given is cell-based. The conditions noted are these: Table III. A digest of the protocol:
as §3

Another assay concerns Staphylococcus aureus. As to the kind of experiment: reference broth microdilution susceptibility assay. Type of assay: cell-based. The settings on record: Table III. The procedure, abridged: as §3
In assay [1] the test system is Stenotrophomonas maltophilia. As to the kind of experiment: reference broth microdilution susceptibility assay. The class given is cell-based. The conditions noted are these: Table III. The procedure, abridged: as §3
The subject of another assay is Streptococcus pneumoniae. The assay can be described thus: reference broth microdilution susceptibility assay. The conditions noted are these: Table III. The class given is cell-based. A digest of the protocol: as §3
Assay [2] relates to human umbilical vein endothelial cells (HUVEC). The assay can be described thus: HUVEC growth inhibition, sulforhodamine B assay. Type of assay: cell-based. The conditions noted are these: HUVEC. As for the experimental part:
In vitro Matrigel antiangiogenesis assays were implemented according to the Developmental Therapeutics Program NCI/NIH protocols known to one of skill in the art. Matrigel, a basement membrane matrix, was obtained from BD Biosciences. Growth inhibition and cord formation assays were Conducted using human umbilical vein endothelial cells obtained from GlycoTeCh. HUVEC cells were grown in EGM-2 medium.
The standard sulforhodamine B assay (see Cancer Cell Line Procedures above) was used to evaluate results using HUVEC cells. IC50 or ED50 (drug concentration causing 50% inhibition) was calculated from the plotted data.

The results in this text go back to patent publication US20070167412A1, “HALOCOMBSTATINS AND METHODS OF SYNTHESIS THEREOF” (ARIZONA BOARD OF REGENTS, priority 2003, published 2007).

Values after ≈ are worked out from the molar mass of the structure shown.

A word on the GI50: it is the concentration at which growth is held to half of that of the control. As to `COc1ccc(/C=C\c2cc(I)c(OC)c(OC)c2)cc1O` [Compound 14a, 3-Iodo-4,4′,5-trimethoxy-3′-hydroxy-z-stilbene], the GI50 in the assay with Breast MCF-7 is 0.22 ng/mL (≈ 0.534 nM); in the assay on CNS SF268 it was 0.35 ng/mL (≈ 0.849 nM); in the assay with Colon KM20L2, 150 ng/mL (≈ 364 nM); in the assay with Lung-NSC NCI-H460, 0.19 ng/mL (≈ 0.461 nM); with Pancreas BXPC-3, 110 ng/mL (≈ 267 nM); in the assay with Prostate DU-145, 0.52 ng/mL (≈ 1.26 nM). Moreover, the GI50 in assay [2] (Homo sapiens, Table V, read-out: Human Umbilical Vein Endothelial Cell (HUVEC) Inhibition Values (GI50)) was 0.04 ng/mL (≈ 0.097 nM). In addition, the “Inhibition of colchicine binding % inhibition ± S.D.” value in the assay with tubulin amounted to 84 ± 7%. Moreover, the “Range of minimum inhibitory concentration, Candida albicans” value with Candida albicans is given as “* (no inhibition at 64 μg/ml)”. In addition, in the assay on Cryptococcus neoformans, the “Range of minimum inhibitory concentration, Cryptococcus neoformans” value is 32000 to 64000 ng/mL. The “Range of minimum inhibitory concentration, Enterobacter cloacae” value with Enterobacter cloacae is listed as “* (no inhibition at 64 μg/ml)”. Moreover, the “Range of minimum inhibitory concentration, Enterococcus faecalis” value in the assay with Enterococcus faecalis was “* (no inhibition at 64 μg/ml)”. For the same molecule, the “Range of minimum inhibitory concentration, Escherichia coli” value with Escherichia coli is given as “* (no inhibition at 64 μg/ml)”. The “Range of minimum inhibitory concentration, Micrococcus luteus” value with Micrococcus luteus fell in the range of 16000 to 32000 ng/mL. Also, the “Range of minimum inhibitory concentration, Neisseria gonorrhoeae” value in the assay with Neisseria gonorrhoeae lay within 16000 to 32000 ng/mL. In addition, in the assay with Staphylococcus aureus, the “Range of minimum inhibitory concentration, Staphylococcus aureus” value was “* (no inhibition at 64 μg/ml)”. Also, the “Range of minimum inhibitory concentration, Stenotrophomonas maltophilia” value in assay [1] is given as “* (no inhibition at 64 μg/ml)”. In addition, the “Range of minimum inhibitory concentration, Streptococcus pneumoniae” value in the assay on Streptococcus pneumoniae was 64000 ng/mL. Also, the “Relative % Growth” value in [2] (0.00001 μg/ml) is on record as 90%; in assay [2] (0.0001 μg/ml) it was 18%; in [2] (0.001 μg/ml), 14%; in assay [2] (0.01 μg/ml), 14%.
